In patent US9101638B2, “Boronic acid derivatives and therapeutic uses thereof” (Rempex Pharmaceuticals, Inc., priority 2013, dated 2015):

How the values were obtained:
[1] = biological target: T1, Elastase (Sus scrofa, UniProt P00772); test: Serine protease inhibition: elastase; type: biochemical, mammalian
T1 construct: purchased Calbiochem 324682
Method: (§1) The effect of selected BLIs on the enzymatic activity of some common mammalian serine proteases was evaluated.
(§2) 50 μl of the diluted enzyme was mixed with 50 μl of inhibitor at various concentrations and 50 μl of corresponding buffer (Table 7). Reaction mixtures were incubated for 10 min at 37° C. Subsequently, 50 μl of corresponding substrate (Table 7) was added and absorbance or fluorescence was monitored for 30 min on SpectraMax M2 plate reader (Molecular Devices). 4-(2-Aminoethyl)benzenesulfonyl fluoride hydrochloride (AEBSF) and leupeptin were used as positive controls. Rates of reaction were calculated and presented relative to “no treatment” control.

[2] = biological target: T2, Trypsin (Bos taurus, UniProt P00760); test: Serine protease inhibition: trypsin; type: biochemical, mammalian
T2 construct: purchased Calbiochem 6502
T2 sequence (P00760 24-246): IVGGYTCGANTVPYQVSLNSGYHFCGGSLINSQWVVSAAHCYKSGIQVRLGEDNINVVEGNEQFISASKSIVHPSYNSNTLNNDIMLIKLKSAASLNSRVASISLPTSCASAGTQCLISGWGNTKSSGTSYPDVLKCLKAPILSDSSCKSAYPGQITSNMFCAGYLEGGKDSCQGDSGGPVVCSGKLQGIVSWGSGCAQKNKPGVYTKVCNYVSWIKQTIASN
Method: as §1, §2

[3] = biological target: T3, HtrA2 (Homo sapiens, UniProt O43464); test: Serine protease inhibition: HtrA2; type: biochemical, mammalian
T3 sequence (O43464 134-458): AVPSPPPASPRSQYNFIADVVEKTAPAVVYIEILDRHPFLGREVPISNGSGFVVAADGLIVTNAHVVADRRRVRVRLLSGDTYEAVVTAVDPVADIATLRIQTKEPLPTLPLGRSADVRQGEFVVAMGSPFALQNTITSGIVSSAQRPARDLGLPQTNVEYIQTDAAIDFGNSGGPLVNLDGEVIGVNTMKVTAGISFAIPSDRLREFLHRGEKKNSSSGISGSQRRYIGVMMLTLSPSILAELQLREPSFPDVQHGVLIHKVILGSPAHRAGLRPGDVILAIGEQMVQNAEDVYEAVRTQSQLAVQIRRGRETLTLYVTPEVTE
Method: as §1, §2

[4] = biological target: T4, Thrombin (Homo sapiens, UniProt P00734); test: Serine protease inhibition: thrombin; type: biochemical, mammalian; conditions: Table 8A, positive controls, numeric; read-out: IC50 Thrombin
T4 construct: Thrombin; MPBio; 19491880; purchased MPBio 19491880
Method: as §1, §2

[5] = biological target: T5, Chymase (Homo sapiens, UniProt P23946); test: Serine protease inhibition: chymase; type: biochemical, mammalian; conditions: Table 8A, positive controls, numeric; read-out: IC50 Chymase
T5 construct: purchased Enzo Lifescience BML-SE281
T5 sequence (P23946 22-247): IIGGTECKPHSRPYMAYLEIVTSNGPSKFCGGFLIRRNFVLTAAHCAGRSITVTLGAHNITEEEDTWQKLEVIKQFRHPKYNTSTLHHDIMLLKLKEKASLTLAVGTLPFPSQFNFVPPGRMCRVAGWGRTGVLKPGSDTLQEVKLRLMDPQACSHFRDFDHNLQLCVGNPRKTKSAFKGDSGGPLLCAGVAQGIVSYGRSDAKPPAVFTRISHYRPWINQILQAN
Method: as §1, §2

[6] = biological target: T6, Urokinase (Homo sapiens, UniProt P00749); test: Serine protease inhibition: urokinase; type: biochemical, mammalian; conditions: Table 8A, positive controls, numeric; read-out: IC50 Urokinase
T6 construct: purchased Calbiochem 672112
Method: as §1, §2

[7] = biological target: T7, Plasmin (Homo sapiens, UniProt P00747); test: Serine protease inhibition: plasmin; type: biochemical, mammalian
T7 construct: Plasmin; MPBio; 19419890; purchased MPBio 19419890
Method: as §1, §2

[8] = biological target: T8, Neutrophil elastase (Homo sapiens, UniProt P08246); test: Serine protease inhibition: neutrophil elastase; type: biochemical, mammalian; conditions: Table 8B; read-out: IC50 Neutrophil elastase
T8 construct: purchased Calbiochem 324681
T8 sequence (P08246 30-267): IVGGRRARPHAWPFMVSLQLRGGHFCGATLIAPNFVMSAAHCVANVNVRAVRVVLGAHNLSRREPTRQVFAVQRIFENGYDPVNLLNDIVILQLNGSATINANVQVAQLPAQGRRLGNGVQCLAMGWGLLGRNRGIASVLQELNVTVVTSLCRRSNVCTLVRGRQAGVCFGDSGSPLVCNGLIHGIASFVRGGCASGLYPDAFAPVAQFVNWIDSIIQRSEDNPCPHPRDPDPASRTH
Method: as §1, §2

[9] = biological target: T9, Dipeptidyl peptidase 8 (DPP8) (Homo sapiens, UniProt Q6V1X1); test: Serine protease inhibition: DPP8; type: biochemical, mammalian
T9 construct: purchased BPS Bioscience 80080
Method: as §1, §2

[10] = biological target: T10, Dipeptidyl peptidase 9 (DPP9) (Homo sapiens, UniProt Q86TI2); test: Serine protease inhibition: DPP9; type: biochemical, mammalian
T10 construct: purchased BPS Bioscience 80090
Method: as §1, §2

[11] = biological target: T11, CathepsinA (Homo sapiens, UniProt P10619); test: Serine protease inhibition: cathepsin A; type: biochemical, mammalian
T11 construct: purchased R&D Systems 1049-SE
T11 sequence (P10619 29-480): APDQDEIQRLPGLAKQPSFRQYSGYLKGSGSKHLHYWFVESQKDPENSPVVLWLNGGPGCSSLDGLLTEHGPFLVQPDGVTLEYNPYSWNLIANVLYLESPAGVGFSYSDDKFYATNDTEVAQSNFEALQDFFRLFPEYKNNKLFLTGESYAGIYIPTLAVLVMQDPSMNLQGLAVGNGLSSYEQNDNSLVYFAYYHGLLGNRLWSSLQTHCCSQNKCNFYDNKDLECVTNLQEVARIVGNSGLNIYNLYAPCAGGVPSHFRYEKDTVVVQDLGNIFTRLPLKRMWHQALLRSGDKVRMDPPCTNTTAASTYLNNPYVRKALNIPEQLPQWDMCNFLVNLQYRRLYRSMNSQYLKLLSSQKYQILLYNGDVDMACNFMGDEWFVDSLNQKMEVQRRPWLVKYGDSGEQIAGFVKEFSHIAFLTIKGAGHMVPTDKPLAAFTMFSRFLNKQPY
Method: as §1, §2

[12] = biological target: T12, Chymotrypsin (Bos taurus, UniProt P00766); test: Serine protease inhibition: chymotrypsin; type: biochemical, mammalian
T12 construct: purchased Calbiochem 230832
Method: as §1, §2

[13] = biological target: T13, Dipeptidyl peptidase 7 (DPP7) (Homo sapiens, UniProt Q9UHL4); test: Serine protease inhibition: DPP7; type: biochemical, mammalian
T13 construct: purchased R&D Systems 3438-SE
Method: as §1, §2

[14] = biological target: CTX-M-14 (Escherichia coli, UniProt Q9L5C7); test: Inhibition of nitrocefin cleavage by purified CTX-M-14; type: biochemical; conditions: nitrocefin reporter substrate, purified enzyme; read-out: Ki (CTX-M-14, NCF)
Method: (§3) Purified enzymes were mixed with various concentrations of inhibitors in reaction buffer and incubated for 10 min at room temperature. Nitrocefin was added and substrate cleavage profiles were recorded at 490 nm every 10 sec for 10 min.

[15] = biological target: OXA-48 (Klebsiella pneumoniae, UniProt Q6XEC0); test: Inhibition of nitrocefin cleavage by purified OXA-48; type: biochemical; conditions: nitrocefin reporter substrate, purified enzyme; read-out: Ki (OXA-48, NCF)
Method: as §3

[16] = biological target: SHV-12 (Klebsiella pneumoniae, UniProt P0AD64, E235K/G234S/L31Q); test: Inhibition of nitrocefin cleavage by purified SHV-12; type: biochemical; conditions: nitrocefin reporter substrate, purified enzyme; read-out: Ki (SHV-12, NCF)
Procedure, shortened: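 10 min RT preincubation, enzyme with inhibitor series in reaction buffer. Substrate nitrocefin; kinetic read 490 nm, 10 sec intervals, 10 min total.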

[17] = biological target: CMY-2 (Klebsiella pneumoniae, UniProt Q48434); test: Inhibition of nitrocefin cleavage by purified CMY-2; type: biochemical; conditions: nitrocefin reporter substrate, purified enzyme; read-out: Ki (CMY-2, NCF)
Method: as §3

[18] = tested on: PAM1032/KPC-2; test: Biapenem potentiation in PAM1032/KPC-2 (MexAB-OprM overexpressed); type: cell-based, Pseudomonas aeruginosa
Method: (§4) Efflux of BLIs from Pseudomonas aeruginosa by the MexAB-OprM efflux pump was also evaluated. […] Due to expression of KPC-2 both strains became resistant to biapenem. […] Potency of BLIs to potentiate biapenem in these strains was determined. […] The ratio of MPC64 values for each BLI in PAM1032/KPC-2 (efflux proficient) and PAM1154/KPC-2 (efflux deficient) was determined to generate the Efflux Index (EI).

[19] = tested on: ec308 (SHV-5); test: Potentiation of aztreonam, strain ec308; type: cell-based; conditions: minimum BLI concentration inhibiting growth with 4 μg/mL aztreonam
[20] = tested on: ec308 (SHV-5); test: Potentiation of tigemonam, strain ec308; type: cell-based; conditions: minimum BLI concentration inhibiting growth with 4 μg/mL tigemonam
[21] = tested on: PAM1154/KPC-2; test: Biapenem potentiation in PAM1154/KPC-2 (MexAB-OprM lacking); type: cell-based, Pseudomonas aeruginosa
Method: as §4

[22] = tested on: KP1009 (CTX-M-15); test: Potentiation of tigemonam, strain KP1009; conditions: minimum BLI concentration inhibiting growth with 4 μg/mL tigemonam
[23] = tested on: KP1005 (CTX-M-14); test: Potentiation of aztreonam, strain KP1005; type: cell-based
[24] = tested on: KP1004 (K-2); test: Potentiation of aztreonam, strain KP1004; type: cell-based; conditions: minimum BLI concentration inhibiting growth with 4 μg/mL aztreonam
[25] = tested on: ec302 (TEM-10); test: Potentiation of aztreonam, strain ec302; type: cell-based
[26] = tested on: ECL1002; test: Potentiation of aztreonam, strain ECL1002; type: cell-based; conditions: minimum BLI concentration inhibiting growth with 4 μg/mL aztreonam
[27] = tested on: ec302 (TEM-10); test: Potentiation of tigemonam, strain ec302; type: cell-based
[28] = tested on: EC1010 (CMY-6); type: cell-based
[29] = biological target: P99 (Enterobacter cloacae, UniProt P05364); test: Inhibition of nitrocefin cleavage by purified P99; type: biochemical; conditions: nitrocefin reporter substrate, purified enzyme; read-out: Ki (P99, NCF)
Method: as §3

Chain of SHV-12 (P0AD64 22-286 L31Q/G234S/E235K): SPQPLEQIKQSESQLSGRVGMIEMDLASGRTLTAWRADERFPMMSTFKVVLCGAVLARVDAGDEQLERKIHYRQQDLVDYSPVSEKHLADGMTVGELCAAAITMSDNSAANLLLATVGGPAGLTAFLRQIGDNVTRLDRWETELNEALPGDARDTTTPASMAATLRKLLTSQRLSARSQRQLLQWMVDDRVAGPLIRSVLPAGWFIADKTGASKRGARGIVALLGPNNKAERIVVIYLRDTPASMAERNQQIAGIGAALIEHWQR
Chain of CTX-M-14 (Q9L5C7 entry or part of it): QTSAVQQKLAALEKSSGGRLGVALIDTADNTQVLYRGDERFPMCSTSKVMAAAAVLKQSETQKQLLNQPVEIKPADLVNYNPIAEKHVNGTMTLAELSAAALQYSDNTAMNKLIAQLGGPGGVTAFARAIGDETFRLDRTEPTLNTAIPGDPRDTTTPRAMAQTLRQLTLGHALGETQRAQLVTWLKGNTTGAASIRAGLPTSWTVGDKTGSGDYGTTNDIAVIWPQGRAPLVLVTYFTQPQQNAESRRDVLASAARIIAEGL
T9 sequence (Q6V1X1 whole entry): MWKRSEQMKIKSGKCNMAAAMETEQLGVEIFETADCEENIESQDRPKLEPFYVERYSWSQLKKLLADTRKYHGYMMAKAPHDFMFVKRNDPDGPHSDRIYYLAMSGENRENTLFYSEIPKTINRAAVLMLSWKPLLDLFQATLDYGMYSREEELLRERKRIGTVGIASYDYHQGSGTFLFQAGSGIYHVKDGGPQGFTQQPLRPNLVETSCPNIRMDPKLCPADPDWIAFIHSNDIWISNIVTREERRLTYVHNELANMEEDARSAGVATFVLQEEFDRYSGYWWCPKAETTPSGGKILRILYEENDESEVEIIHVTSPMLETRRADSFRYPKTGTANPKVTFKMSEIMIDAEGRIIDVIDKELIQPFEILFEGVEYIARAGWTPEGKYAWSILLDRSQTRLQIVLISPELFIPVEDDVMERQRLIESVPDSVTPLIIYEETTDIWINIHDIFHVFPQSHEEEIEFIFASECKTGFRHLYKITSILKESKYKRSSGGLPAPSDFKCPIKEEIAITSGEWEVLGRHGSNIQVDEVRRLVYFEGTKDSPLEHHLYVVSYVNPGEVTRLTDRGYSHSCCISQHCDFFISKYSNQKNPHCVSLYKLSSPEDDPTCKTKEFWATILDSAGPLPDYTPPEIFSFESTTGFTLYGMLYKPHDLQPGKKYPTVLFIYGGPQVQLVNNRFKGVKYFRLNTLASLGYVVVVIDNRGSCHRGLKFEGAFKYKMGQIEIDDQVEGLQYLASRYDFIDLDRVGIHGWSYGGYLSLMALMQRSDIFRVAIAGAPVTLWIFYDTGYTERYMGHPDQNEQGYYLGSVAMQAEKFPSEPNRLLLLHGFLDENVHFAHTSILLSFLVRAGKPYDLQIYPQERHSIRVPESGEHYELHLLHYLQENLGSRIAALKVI
T10 sequence (Q86TI2 whole entry): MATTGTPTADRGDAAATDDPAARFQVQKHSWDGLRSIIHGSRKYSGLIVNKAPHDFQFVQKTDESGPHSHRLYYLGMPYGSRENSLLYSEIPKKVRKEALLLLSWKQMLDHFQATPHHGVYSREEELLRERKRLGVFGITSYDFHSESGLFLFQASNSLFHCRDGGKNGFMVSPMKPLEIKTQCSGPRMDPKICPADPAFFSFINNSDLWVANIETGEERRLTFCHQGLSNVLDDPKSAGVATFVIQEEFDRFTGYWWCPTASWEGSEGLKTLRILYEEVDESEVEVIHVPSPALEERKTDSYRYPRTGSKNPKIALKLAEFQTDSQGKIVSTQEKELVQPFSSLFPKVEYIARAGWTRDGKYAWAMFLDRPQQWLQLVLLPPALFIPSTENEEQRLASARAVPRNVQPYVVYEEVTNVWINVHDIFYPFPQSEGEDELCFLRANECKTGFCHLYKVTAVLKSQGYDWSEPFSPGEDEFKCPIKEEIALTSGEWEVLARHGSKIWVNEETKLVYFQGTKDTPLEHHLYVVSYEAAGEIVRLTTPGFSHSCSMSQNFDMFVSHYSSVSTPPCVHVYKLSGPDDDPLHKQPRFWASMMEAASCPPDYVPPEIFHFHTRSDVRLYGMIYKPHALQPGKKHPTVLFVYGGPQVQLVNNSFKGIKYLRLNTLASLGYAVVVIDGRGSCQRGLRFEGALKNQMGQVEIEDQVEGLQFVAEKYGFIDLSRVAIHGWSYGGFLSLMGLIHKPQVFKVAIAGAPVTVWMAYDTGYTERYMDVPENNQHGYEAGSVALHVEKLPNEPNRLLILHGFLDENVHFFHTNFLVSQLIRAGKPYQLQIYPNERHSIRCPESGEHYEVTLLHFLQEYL
Chain of OXA-48 (Q6XEC0 23-265 limits assumed): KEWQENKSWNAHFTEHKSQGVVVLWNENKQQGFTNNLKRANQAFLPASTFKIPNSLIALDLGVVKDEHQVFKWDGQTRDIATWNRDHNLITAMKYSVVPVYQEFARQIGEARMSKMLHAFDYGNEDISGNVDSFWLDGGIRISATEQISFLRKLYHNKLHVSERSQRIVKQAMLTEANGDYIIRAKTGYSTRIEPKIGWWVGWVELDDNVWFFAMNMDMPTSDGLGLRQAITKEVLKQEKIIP
T1 sequence (P00772 27-266): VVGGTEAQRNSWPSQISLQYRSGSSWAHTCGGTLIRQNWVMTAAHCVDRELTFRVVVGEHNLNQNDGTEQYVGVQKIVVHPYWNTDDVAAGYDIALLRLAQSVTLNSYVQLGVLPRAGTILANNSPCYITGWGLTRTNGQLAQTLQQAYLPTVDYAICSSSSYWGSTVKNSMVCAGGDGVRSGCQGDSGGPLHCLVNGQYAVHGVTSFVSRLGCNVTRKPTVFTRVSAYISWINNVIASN
Chain of P99 (P05364 21-381): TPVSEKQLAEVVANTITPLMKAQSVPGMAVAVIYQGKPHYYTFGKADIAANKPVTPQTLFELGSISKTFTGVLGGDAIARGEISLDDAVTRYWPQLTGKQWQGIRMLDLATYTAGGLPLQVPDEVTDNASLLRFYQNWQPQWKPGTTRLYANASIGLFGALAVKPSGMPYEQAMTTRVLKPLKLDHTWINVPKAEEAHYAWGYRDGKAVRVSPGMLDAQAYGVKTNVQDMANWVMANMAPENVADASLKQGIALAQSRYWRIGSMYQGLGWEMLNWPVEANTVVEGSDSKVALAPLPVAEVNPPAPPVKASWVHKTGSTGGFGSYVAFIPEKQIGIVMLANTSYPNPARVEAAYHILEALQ
T7 sequence (P00747 581-810 limits assumed, species assumed): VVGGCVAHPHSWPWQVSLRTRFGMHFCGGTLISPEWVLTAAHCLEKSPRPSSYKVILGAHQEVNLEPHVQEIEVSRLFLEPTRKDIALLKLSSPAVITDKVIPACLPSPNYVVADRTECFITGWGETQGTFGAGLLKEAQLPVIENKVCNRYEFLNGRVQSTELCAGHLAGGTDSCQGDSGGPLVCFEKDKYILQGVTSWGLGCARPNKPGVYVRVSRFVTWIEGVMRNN
T7 sequence (P00747 97-580 partner limits assumed, species assumed): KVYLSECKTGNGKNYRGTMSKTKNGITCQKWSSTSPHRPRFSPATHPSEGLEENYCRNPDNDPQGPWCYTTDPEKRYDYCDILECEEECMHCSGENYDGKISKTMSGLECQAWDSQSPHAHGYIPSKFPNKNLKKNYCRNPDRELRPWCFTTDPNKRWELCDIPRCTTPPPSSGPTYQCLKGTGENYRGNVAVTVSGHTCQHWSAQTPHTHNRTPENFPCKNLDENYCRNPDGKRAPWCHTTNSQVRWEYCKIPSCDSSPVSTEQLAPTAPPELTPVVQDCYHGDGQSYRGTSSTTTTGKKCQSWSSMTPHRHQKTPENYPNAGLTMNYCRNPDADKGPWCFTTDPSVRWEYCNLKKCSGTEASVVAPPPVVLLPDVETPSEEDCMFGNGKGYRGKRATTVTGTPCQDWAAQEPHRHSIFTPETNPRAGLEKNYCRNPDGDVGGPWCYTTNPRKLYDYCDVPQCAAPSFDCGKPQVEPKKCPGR
Chain of CMY-2 (Q48434 21-381, species assumed): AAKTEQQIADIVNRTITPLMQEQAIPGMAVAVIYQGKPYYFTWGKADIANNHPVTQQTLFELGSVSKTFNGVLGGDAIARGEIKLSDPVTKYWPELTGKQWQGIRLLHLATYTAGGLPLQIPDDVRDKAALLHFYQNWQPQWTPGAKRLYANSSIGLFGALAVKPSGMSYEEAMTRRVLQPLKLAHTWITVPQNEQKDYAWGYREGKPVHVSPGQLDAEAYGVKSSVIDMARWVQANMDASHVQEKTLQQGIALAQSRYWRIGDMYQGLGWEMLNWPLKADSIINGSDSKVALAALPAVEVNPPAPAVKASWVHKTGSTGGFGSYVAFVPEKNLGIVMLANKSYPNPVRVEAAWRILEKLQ

CC(=O)N[C@@H](CC(C)C)C(=O)N[C@@H](CC(C)C)C(=O)N[C@H](C=O)CCCNC(=N)N [Leupeptin, leupeptin, reference compound]
IC50 [1]: > 200 µM | IC50 [2]: < 0.27 µM | IC50 [3]: > 500 µM | IC50 [4]: 15 µM | IC50 [5]: > 200 µM | IC50 [6]: 22 µM | IC50 [7]: 5 µM | IC50 [8]: 15 to 500 µM | IC50 [9]: 15 to 500 µM | IC50 [10]: 15 to 500 µM | IC50 [11]: 15 to 500 µM | IC50 [12]: > 200 µM | IC50 [13]: 15 to 500 µM

NC(=O)CC(=O)N[C@H]1Cc2cccc(C(=O)O)c2OB1O [Compound 16, (R)-3-(3-amino-3-oxopropanamido)-2-hydroxy-3,4-dihydro-2H-benzo[e][1,2]oxaborinine-8-carboxylic acid]
Ki [14]: 0.001 to 0.01 µM | Ki [15]: 0.001 to 0.01 µM | Ki [16]: < 0.001 µM | Ki [17]: 0.001 to 0.01 µM | PAM1032/KPC-2 Biapenem MPC64 [18]: X (key: X = Less than 10; Y = 10 to 40; Z Greater than 40) | AZT MPC4 SHV-5 ec308 [19]: X (X = MIC of less than 1 μg/mL) | TIG MPC4 SHV-5 ec308 [20]: Y (Y = MIC of 1 μg/mL to 10 μg/mL) | PAM1154/KPC-2 Biapenem MPC64 [21]: X (key: X = Less than 10; Y = 10 to 40; Z Greater than 40) | TIG MPC4 CTX-M-15 KP1009 [22]: X (X = MIC of less than 1 μg/mL) | AZT MPC4 CTX-M-14 KP1005 [23]: X (key: X = MIC of less than 1 μg/mL; Y = MIC of 1 μg/mL to 10 μg/mL; Z = MIC of greater than 10 μg/mL) | AZT MPC4 K-2 KP1004 [24]: Y (Y = MIC of 1 μg/mL to 10 μg/mL) | AZT MPC4 TEM-10 ec302 [25]: X (key: X = MIC of less than 1 μg/mL; Y = MIC of 1 μg/mL to 10 μg/mL; Z = MIC of greater than 10 μg/mL) | AZT MPC4 ECL1002 [26]: X (X = MIC of less than 1 μg/mL) | TIG MPC4 TEM-10 ec302 [27]: Y (key: X = MIC of less than 1 μg/mL; Y = MIC of 1 μg/mL to 10 μg/mL; Z = MIC of greater than 10 μg/mL) | TIG MPC4 CMY-6 EC1010 [28]: X (key: X = MIC of less than 1 μg/mL; Y = MIC of 1 μg/mL to 10 μg/mL; Z = MIC of greater than 10 μg/mL) | Ki [29]: 0.001 to 0.01 µM
